Some results are limits rather than exact numbers.

Series [1] relates to HBV. Nature of the series: anti HBV activity, HepG2.117 inducibly HBV producing cell line (Tet-off), intracellular HBV DNA by realtime PCR. It is filed as cell-based. Conditions: Hepatitis B virus, 72 h, HepG2.117 cells, 3 days of treatment.
Series [2] in a line: ATP based toxicity assay (ATPlite), HepG2 cell line. Conditions: human, HepG2 cells, ATPlite (ATP levels). On the procedure:
Alternatively, cytotoxicity was determined via an ATP-assay: The ATPlite kit from Perkin Elmer was used to assess compound cytotoxicity on the HepG2 cell line by determination of the ATP (adenosine triphosphate) levels. ATP is a marker for functional integrity and cell viability, because it is present in all metabolically active cells and any form of cell injury will result in a rapid decline in cellular ATP concentration. After compound incubation, 1 volume of ATPlite solution was added to the cells and the luminescence signal was measured.
(Cellular ATP, detected with luciferase, serves as a proxy for viable cell number.)

The subject of series [3] is HBV. The series is described as follows: anti-HBV activity, HepG2.2.15 stable transfected cell line, HBV DNA from secreted virions by realtime PCR. It is filed as cell-based. Conditions: Hepatitis B virus, 144 h, HepG2.2.15 cells, 6 days of treatment.
Series [4] in a line: Cytotoxicity, HepG2 cells, Resazurin assay. In kind it is cell-based. Conditions: human.

In the series with HBV [1], `Cc1cc(NC(=O)c2c(F)c(S(=O)(=O)N[C@H](C)C(F)(F)F)cn2C)cc(Cl)n1` [Compound 213, N-(2-chloro-6-methyl-4-pyridyl)-3-fluoro-1-methyl-4-[[(1R)-2,2,2-trifluoro-1-methyl-ethyl]sulfamoyl]pyrrole-2-carboxamide] had an EC50 of 0.05 µM. This molecule also showed a CC50 at 4 days in series [2] above 25 µM.

For the molecule `Cc1nc(NC(=O)c2c(F)c(S(=O)(=O)N[C@H](C)C(F)(F)F)cn2C)ccc1F` [Compound 214, 3-fluoro-N-(5-fluoro-6-methyl-2-pyridyl)-1-methyl-4-[[(1R)-2,2,2-trifluoro-1-methyl-ethyl]sulfamoyl]pyrrole-2-carboxamide], in the series with HBV [1], the EC50 came to 0.08 µM. Further, in series [2], the CC50 at 4 days was above 25 µM.

In the case of `Cn1cc(S(=O)(=O)NC2(C(F)(F)F)CC2)c(F)c1C(=O)Nc1ccnc(C#N)c1` [Compound 192, N-(2-cyano-4-pyridyl)-3-fluoro-1-methyl-4-[[1-(trifluoromethyl)cyclopropyl]sulfamoyl]pyrrole-2-carboxamide], in the series on HBV [1], the EC50 is 0.02 µM. In addition, in series [2], the CC50 at 4 days was above 25 µM.

`Cc1c(S(=O)(=O)N[C@H](C)C(F)(F)F)c(F)c(C(=O)Nc2ccnc(C(F)F)c2)n1C` [Compound 206, N-[2-(difluoromethyl)-4-pyridyl]-3-fluoro-1,5-dimethyl-4-[[(1R)-2,2,2-trifluoro-1-methyl-ethyl]sulfamoyl]pyrrole-2-carboxamide] gave an EC50 in the series on HBV [1] of 0.02 µM. The molecule further showed a CC50 at 4 days in series [2] above 25 µM.

Regarding `Cc1c(S(=O)(=O)N[C@H](C)C(F)(F)F)c(F)c(C(=O)Nc2ccnc(C(F)F)c2F)n1C` [Compound 207, N-[2-(difluoromethyl)-3-fluoro-4-pyridyl]-3-fluoro-1,5-dimethyl-4-[[(1R)-2,2,2-trifluoro-1-methyl-ethyl]sulfamoyl]pyrrole-2-carboxamide], in the series on HBV [1], it took 0.01 µM to reach a half-maximal effect (EC50). This molecule also came in with a CC50 at 4 days in series [2] above 25 µM.

Molecule `C[C@@H](NS(=O)(=O)c1cn(C)c(C(=O)Nc2cc(F)nc(Br)c2)c1F)C(F)(F)F` [Compound 216, N-(2-bromo-6-fluoro-4-pyridyl)-3-fluoro-1-methyl-[[(1R)-2,2,2-trifluoro-1-methyl-ethyl]sulfamoyl]pyrrole-2-carboxamide] had an EC50 with HBV [1] of 0.01 µM. The CC50 at 4 days in series [2] was above 25 µM.

In the series on HBV [1], `Cn1cc(S(=O)(=O)NC(C)(C)C(F)(F)F)c(F)c1C(=O)Nc1ccnc(C(F)F)c1F` [Compound 201, N-[2-(difluoromethyl)-3-fluoro-4-pyridyl]-3-fluoro-1-methyl-4-[(2,2,2-trifluoro-1,1-dimethyl-ethyl)sulfamoyl]pyrrole-2-carboxamide] yielded an EC50 of 0.03 µM. This molecule gave a CC50 at 4 days in series [2] above 25 µM.

Molecule `C[C@@H](NS(=O)(=O)c1cn(C)c(C(=O)Nc2cc(F)nc(Cl)c2)c1F)C(F)(F)F` [Compound 215, N-(2-chloro-6-fluoro-4-pyridyl)-3-fluoro-1-methyl-4-[[(1R)-2,2,2-trifluoro-1-methyl-ethyl]sulfamoyl]pyrrole-2-carboxamide] gave an EC50 in the series on HBV [1] of 0.006 µM. In addition, in series [2], the CC50 at 4 days was above 25 µM.

In the case of `Cn1cc(S(=O)(=O)NC2(C(F)(F)F)CC2)c(F)c1C(=O)Nc1ccnc(C(F)F)c1` [Compound 196, N-[2-(difluoromethyl)-4-pyridyl]-3-fluoro-1-methyl-4-[[1-(trifluoromethyl)cyclopropyl]sulfamoyl]pyrrole-2-carboxamide], the EC50 with HBV [1] was 0.02 µM. In addition, in series [2], the CC50 at 4 days was above 25 µM.

Turning to `C[C@@H](NS(=O)(=O)c1cn(C)c(C(=O)Nc2ccnc(C(F)F)c2F)c1F)C(F)(F)F` [Compound 202, N-[2-(difluoromethyl)-3-fluoro-4-pyridyl]-3-fluoro-1-methyl-4-[[(1R)-2,2,2-trifluoro-1-methyl-ethyl]sulfamoyl]pyrrole-2-carboxamide], the EC50 in the series on HBV [1] was found to be 0.008 µM. The same molecule displayed a CC50 at 4 days in series [2] above 25 µM.

The molecule `Cn1cc(S(=O)(=O)NC2(C(F)(F)F)CC2)c(F)c1C(=O)Nc1ccnc(C(F)F)c1F` [Compound 195, N-[2-(difluoromethyl)-3-fluoro-4-pyridyl]-3-fluoro-1-methyl-4-[[1-(trifluoromethyl)cyclopropyl]sulfamoyl]pyrrole-2-carboxamide] registered an EC50 with HBV [1] of 0.02 µM. Further, the CC50 at 4 days in series [2] is above 25 µM.

In turn, `Cn1cc(S(=O)(=O)NC2(C(F)(F)F)CC2)c(F)c1C(=O)Nc1ccnc(Br)c1F` [Compound 203, N-(2-bromo-3-fluoro-4-pyridyl)-3-fluoro-1-methyl-4-[[1-(trifluoromethyl)cyclopropyl]sulfamoyl]pyrrole-2-carboxamide] showed an EC50 with HBV [1] of 0.008 µM. In series [2], this molecule registered a CC50 at 4 days above 25 µM.

In the case of `Cn1cc(S(=O)(=O)NC2(C(F)(F)F)CC2)c(F)c1C(=O)Nc1cc(F)nc(F)c1` [Compound 193, N-(2,6-difluoro-4-pyridyl)-3-fluoro-1-methyl-4-[[1-(trifluoromethyl)cyclopropyl]sulfamoyl]pyrrole-2-carboxamide], the EC50 in the series on HBV [1] was found to be 0.009 µM. Also, the CC50 at 4 days in series [2] was above 25 µM.

Regarding `Cn1cc(S(=O)(=O)NC2(C(F)(F)F)CC2)c(Cl)c1C(=O)Nc1ccnc(Cl)c1` [Compound 45, 3-chloro-N-(2-chloro-4-pyridyl)-1-methyl-4-[[1-(trifluoromethyl)cyclopropyl]-sulfamoyl]pyrrole-2-carboxamide], the EC50 is 0.05 µM with HBV [3] and 0.04 µM in the series on HBV [1]. This molecule registered a CC50 at 4 days in series [4] above 25 µM.

Take `CC[C@H](NS(=O)(=O)c1cc(C(=O)Nc2ccnc(Cl)c2)n(C)c1)C(F)(F)F` [Compound 47, N-(2-chloro-4-pyridyl)-1-methyl-4-[[(1S)-1-(trifluoromethyl)propyl]-sulfamoyl]pyrrole-2-carboxamide]: the results for the EC50 with HBV [3] and in the series with HBV [1] were 0.06 µM and 0.04 µM, respectively. For the same molecule, the CC50 at 4 days in series [4] is above 25 µM.

As to `C[C@@H](NS(=O)(=O)c1cn(C)c(C(=O)Nc2cc(F)nc(F)c2)c1F)C(F)(F)F` [Compound 30, N-(2,6-difluoro-4-pyridyl)-3-fluoro-1-methyl-4-[[(1R)-2,2,2-trifluoro-1-methyl-ethyl]sulfamoyl]pyrrole-2-carboxamide], the EC50 in the series with HBV [3] is below 0.1 µM; in the series on HBV [1] it was 0.01 µM. In series [4], this molecule registered a CC50 at 4 days above 25 µM.

For `Cc1cc(NC(=O)c2cc(S(=O)(=O)NC3(C)COC3)cn2C)cnc1F` [Compound 3, N-(6-Fluoro-5-methylpyridin-3-yl)-1-methyl-4-[(3-methyloxetan-3-yl)sulfamoyl]-1H-pyrrole-2-carboxamide], the EC50 is above 1 µM in the series on HBV [3] and 0.75 µM in the series on HBV [1]. Further, the CC50 at 4 days in series [4] is above 25 µM.

Consider `C[C@@H](NS(=O)(=O)c1cn(C)c(C(=O)Nc2ccnc(C(C)(F)F)c2)c1F)C(F)(F)F` [Compound 129, N-[2-(1,1-difluoroethyl)-4-pyridyl]-3-fluoro-1-methyl-4-[[(1R)-2,2,2-trifluoro-1-methyl-ethyl]sulfamoyl]pyrrole-2-carboxamide], for which the EC50 in the series with HBV [3] was 0.81 µM; in the series on HBV [1] it was 0.4 µM. Further, the CC50 at 4 days in series [4] was above 25 µM.

Consider `Cn1cc(S(=O)(=O)NC2(C)CC(F)(F)C2)c(Cl)c1C(=O)Nc1ccnc(Cl)c1` [Compound 65, 3-chloro-N-(2-chloro-4-pyridyl)-4-[(3,3-difluoro-1-methyl-cyclobutyl)-sulfamoyl]-1-methyl-pyrrole-2-carboxamide], for which the EC50 worked out at 0.02 µM in the series with HBV [3] and 0.03 µM in the series with HBV [1]. In series [4], this molecule had a CC50 at 4 days above 25 µM.

Regarding `C[C@@H](NS(=O)(=O)c1cn(C)c(C(=O)Nc2ccnc(C#N)c2F)c1Cl)C(F)(F)F` [Compound 143, 3-chloro-N-(2-cyano-3-fluoro-4-pyridyl)-1-methyl-4-[[(1R)-2,2,2-trifluoro-1-methyl-ethyl]sulfamoyl]pyrrole-2-carboxamide], the results for the EC50 with HBV [3] and in the series with HBV [1] were 0.18 µM and 0.02 µM, respectively. For the same molecule, in series [4], the CC50 at 4 days is above 25 µM.

`Cn1cc(S(=O)(=O)NC2(C(F)(F)F)CCC2)cc1C(=O)Nc1ccnc(C#N)c1` [Compound 42, N-(2-cyano-4-pyridyl)-1-methyl-4-[[1-(trifluoromethyl)cyclobutyl]-sulfamoyl]pyrrole-2-carboxamide]: the results for the EC50 in the series with HBV [3] and in the series with HBV [1] were 0.05 µM and 0.08 µM, respectively. Besides, in series [4], the CC50 at 4 days is above 25 µM.

`C[C@H](NS(=O)(=O)c1cn(C)c(C(=O)Nc2ccnc(C#N)c2)c1F)C(F)(F)F` [Compound 19, N-(2-Cyanopyridin-4-yl)-3-fluoro-1-methyl-4-{[(1S)-2,2,2-trifluoro-1-methylethyl]sulfamoyl}-1H-pyrrole-2-carboxamide]: the EC50 with HBV [3] worked out at 0.16 µM; in the series with HBV [1], 0.1 µM. In series [4], this molecule yielded a CC50 at 4 days above 25 µM.

Consider `Cn1cc(S(=O)(=O)NC2(C)COC2)cc1C(=O)Nc1cc(C(F)(F)F)ccn1` [Compound 4, 1-Methyl-4-[(3-methyloxetan-3-yl)sulfamoyl]-N-[4-(trifluoromethyl)pyridin-2-yl]-1H-pyrrole-2-carboxamide], for which the EC50 in the series with HBV [3] is above 1 µM; in the series with HBV [1], 2.34 µM. Moreover, in series [4], the CC50 at 4 days was above 25 µM.

With `CC[C@@H](NS(=O)(=O)c1cn(C)c(C(=O)Nc2ccnc(C#N)c2)c1F)C(F)(F)F` [Compound 31, N-(2-cyano-4-pyridyl)-3-fluoro-1-methyl-4-[[(1R)-1-(trifluoromethyl)propyl]-sulfamoyl]pyrrole-2-carboxamide], the EC50 in the series with HBV [3] worked out at 0.03 µM; in the series on HBV [1], 0.04 µM. This molecule gave a CC50 at 4 days in series [4] above 25 µM.

Regarding `C[C@@H](NS(=O)(=O)c1cn(C)c(C(=O)Nc2ccnc(Br)c2)c1F)C(C)(F)F` [Compound 124, N-(2-bromo-4-pyridyl)-4-[[(1R)-2,2-difluoro-1-methyl-propyl]sulfamoyl]-3-fluoro-1-methyl-pyrrole-2-carboxamide], the EC50 in the series on HBV [3] is below 0.1 µM; in the series with HBV [1], 0.01 µM. In series [4], this molecule had a CC50 at 4 days above 25 µM.

The term EC50 denotes the concentration that produces a half-maximal response. Higher therefore signals weaker potency. By CC50 is commonly meant the concentration that lowers cell viability or growth by half. A higher CC50 goes with better tolerance by the cells.

(Values after patent US11078193B2 (priority 2014, dated 2021).)
